We go through 3 molecules from article PMC11883425, “The synthesis and investigation of novel 3-benzoylbenzofurans and pyrazole derivatives for anti-HIV activity” (RSC Medicinal Chemistry, 2025).

Where two headings read alike, the source gives them in different places. Bounds are passed on as bounds.

One series has as its system TZM-bl cells. The series is described as follows: Cytotoxicity in TZM-bl cells by MTT assay. The conditions noted are these: pyrazole vs benzofuran precursor. Type of series: cell-based. On the procedure: (§1) All cell culture reagents and cell growth medium were purchased from Sigma-Aldrich/Merck. The cell lines are TZM-bl cells (HeLa cells derived cell that is genetically engineered to contain CD4 and CCR5/CXCR4 receptor) were obtained from NIH AIDS Reagent Program and HEK 293T (derived from human embryonic kidney cells) were received as donations from the lab of Dr Patience Mthunzi, Biophotonics laboratory, CSIR. […] The cells were cultured in T-75 culture flasks (Lasec SA (Pty) Ltd Johannesburg) in Dulbecco's modified Eagle's medium (DMEM) with 3.7 g L^−1 […], 0.05% (v/v) gentamicin/mL, 1% penicillin/streptomycin and 10% heat-inactivated fetal bovine serum (Celtic Molecular Diagnostics). All incubations for tissue cell culture were conducted in a 37 °C, 5% CO2, and 95% humidity incubator.
(§2) The cytotoxicity of compounds was evaluated in TZM-bl cells since these cells are susceptible to HIV infections and would be used for the evaluation of HIV entry inhibition by 3-benzoylbenzofurans and pyrazole derivatives.[74] MTT dye (3-(4,5-dimethylthiazol-2-yl)-2,5-diphenyltetrazolium bromide), which is reduced by viable cells to produce […] purple formazan, was then measured and correlated with cell viability.[75] TZM-bl cells were cultured to confluency in DMEM containing 10% FBS and harvested by centrifugation at 1200 × g for 5 minutes. The cells were counted at 1 × 10^5 cells per mL per well and were seeded overnight, followed by treatment with serially diluted compounds from 500 to 0.98 μM for 48 hours. The peripheral blood mononuclear cells (PBMCs) were isolated from the blood of HIV-negative volunteers, treated with phytohaemagglutinin-protein (PHA, 4 μg mL^−1) to stimulate the cells for 2 hours. PBMCs were diluted in RPMI-1640 medium, counted and 1 × 10^6 cells per mL were treated with compounds (500 to 0.98 μM) for 48 hours. Cells were harvested by centrifugation at 1200 × g for 5 minutes, and the supernatants were removed. For the PBMCs, MTS dye (3-(4,5-dimethylthiazol-2-yl)-5-(3-carboxymethoxyphenylo)-2-(4-sulfophenyl)-2H-tetrazolium) was used.[76] A 100 μL of tetrazolium dye (5 mg mL^−1 MTT prepared in DMEM or 1 : 9 dilution MTS prepared in RPMI-1640) was added to the wells and incubated for 4 to 24 hours. MTT samples were solubilized with 100 μL solubilization buffer (1 mL HCl: 9 mL isopropanol) for 30 minutes, and the absorbance reading was taken at 550 nm and 690 nm wavelengths. MTS sample readings were taken at 490 nm without a solubilization step using the SpectraMax^R Paradigm^R Multi-Mode Detection Platform plate reader (Molecular Devices, California, USA).
(Tetrazolium assays rely on reduction of a dye to a coloured formazan, in cell work by metabolically active cells.)

Series [1] in a line: Cytotoxicity in TZM-bl cells by MTT assay. Type of series: cell-based. The following applies: human, MTT assay, 48 hours, mean ± SEM. The protocol:
as §1, §2

The test system of another series is HIV-1 Q23 pseudovirus. The series is described as follows: HIV-1 whole virus inhibition assay, Q23 pseudovirus (luciferase, TZM-bl cells). Type of series: cell-based. The protocol: (§3) The HIV pseudoviruses were produced from the plasmids that were kindly donated by Dr Mthunzi-Kufa (CSIR, South Africa). Competent DH5α cells and STBL2 cells were transformed with envelope (CAP210.2.00.E8 and Q23.17) and backbone plasmid (HIV-1 SG3 ΔEnv) through heat-shock at 42 °C for 90 seconds and cooled in ice for 5 minutes. The transformed cells were grown in Luria Bertani medium containing 100 μg mL^−1 ampicillin and glycerol stocks were prepared. The transformed cells were grown at 37 °C in a 200 rpm shaking incubator overnight and the plasmids were isolated from the cells using a GeneJET plasmid Miniprep Kit (ThermoFisher Scientific Inc). The purity of the isolated plasmids was assessed for purity using Nanodrop. The HEK 293T cells were co-transfected with the backbone (10 μg) and envelope plasmids (5 μg) using the PolyFect Transfection Reagent (QIAGEN N.V) for 8–12 hours and the transfected cells were grown for 48 hours producing pseudoviruses which were collected, and stocks stored at −80 °C.
(§4) The compounds were serial diluted from 100 to1.56 μM in 96 well plates (Separation Scientific SA (Pty) Ltd) and incubated with either CAP210 or Q23 pseudoviruses (200 TCID50) and incubated for 1 hour. The TZM-bl cells (1 × 10^5 cells per mL containing 7.5 μg mL^−1 DEAE-dextran) were added and incubated for 48 hours. The 96 well plates were centrifuged, and the supernatant was removed leaving only 50 μL in each well. The Bright-Glo™ Luciferase substrate (Anatech Instruments (Pty) Ltd) (50 μL) was added to each well and incubated for 2 minutes in the dark and chemiluminescence readings were taken in a Corning® 96-well white polystyrene plate using a SpectraMax® Paradigm® Multi-Mode Microplate Reader.

The next series has as its system HIV-1 CAP210 pseudovirus. Kind of series: HIV-1 whole virus inhibition assay, CAP210 pseudovirus (luciferase, TZM-bl cells). The conditions noted are these: for IC50: TZM-bl, 48 h, read-out: IC50 (μM) CAP210, CAP210 pseudovirus, TZM-bl cells, 48 hours. Type of series: cell-based. On the procedure: as §3, §4
The next series deals with various HIV-1 subtypes. The conditions noted are these: literature reports; read-out: IC50 against various HIV-1 subtypes; cited from earlier work.
Series [2] relates to HIV-1 subtype C pseudoviruses. The conditions noted are these: cited from earlier work.
A further series relates to CAP210 pseudovirus. The series is described as follows: Time of drug addition assay, CAP210 pseudovirus in TZM-bl cells. Format: cell-based, HIV-1. The following applies: 3 μM, added 0, 2, 4, 6, 8 hours post-infection. The protocol: Fig. 5 Time of addition assay of CAP210 HIV infection treated with active compounds. TZM-bl cells were infected with CAP210 pseudoviruses and treated with compounds at various hours post-infection. NVP, 3g, and 4b were used at 3 μM, while 5f and 5h were used at 25 μM. The bars represent the mean ± SEM obtained from three independent experiments.
TZM-bl cells (1 × 10^5 cells per mL containing 7.5 μg mL^−1 DEAE-dextran) were infected with CAP210 pseudovirus at 400 TCID50 and incubated at 37 °C for 48 hours. The compounds were added to the wells at various time points (0, 2, 4, 6, and 8 hours) post-infection. […] After 48 hours, the cells were centrifuged at 1200 × g for 5 minutes, culture media was removed, leaving 50 μL, and Bright-Glo substrate (50 μL) was added to detect luciferase activity for 2 minutes at 37 °C. Inhibition of HIV pseudoviruses by active compounds was detected by reading for chemiluminescence using a Corning® 96-well white polystyrene using the SpectraMax® Paradigm® Multi-Mode Microplate Reader.

Setting [3] is: TZM-bl, 48 h, read-out: IC50 (μM) Q23, Q23 pseudovirus, TZM-bl cells, 48 hours.

Take `COc1ccc(OC)c(-c2n[nH]cc2-c2c(O)cc(C)c(OC)c2C)c1` [5a, 2-[3-(2,5-Dimethoxyphenyl)-1H-pyrazol-4-yl]-4-methoxy-3,5-dimethylphenol]: the “decrease in cytotoxicity versus precursor” value in the series on TZM-bl cells is recorded as 1 fold. Besides, the CC50 at 48 h in series [1] amounted to 88.9 ± 22.1 µM. Further, the concentration for half-maximal inhibition (IC50) in the series with HIV-1 Q23 pseudovirus (setting [3]) was 13.3 ± 1.12 µM; in the series with HIV-1 CAP210 pseudovirus it was 18.4 ± 3.2 µM.
Take `Cc1ccnc2c1NC(=O)c1cccnc1N2C1CC1` [NVP, nevirapine, reference compound]: the IC50 was about 30 nM in the series with various HIV-1 subtypes; under 0.11 µM in the series with HIV-1 Q23 pseudovirus (setting [3]); 0.11 ± 0.004 µM with HIV-1 Q23 pseudovirus (read-out: IC50 (μM) Q23, Q23 pseudovirus, TZM-bl cells, 48 hours); 30 nM in series [2]; 0.1 ± 0.002 µM with HIV-1 CAP210 pseudovirus. Further, the “inhibition of Q23 infection” value with HIV-1 Q23 pseudovirus (all tested concentrations) stood at 99%. Moreover, the “inhibition of CAP210 infection” value in the series with HIV-1 CAP210 pseudovirus (all tested concentrations) worked out at 99%. Moreover, the “inhibition of HIV infection by time of addition” value in the series on CAP210 pseudovirus is “inhibit HIV infections for up to 8 hours”.
With `Cc1cn([C@H]2C[C@H](N=[N+]=[N-])[C@@H](CO)O2)c(=O)[nH]c1=O` [zidovudine], the IC50 in series [2] is 50 nM.

In general, CC50 refers to the concentration at which the toxic effect on the cells reaches its halfway point. A lower CC50 goes with harm at low concentration. Usually IC50 stands for the concentration that gives 50% inhibition.
